Assay results published in publication PMC6934184, “Selective DNA-PKcs inhibition extends the therapeutic index of localized radiotherapy and chemotherapy” (The Journal of Clinical Investigation, 2019).

Target: T1, FRAP1 (mTOR) (Homo sapiens, UniProt P42345)
T1 construct: purchased Thermo Fisher Scientific (Life Technologies) SelectScreen
Assay: SelectScreen Z'LYTE
Assay type: biochemical
How it was run: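 SelectScreen broad panel; activity (Z'LYTE, Adapta) plus binding formats. ATP: Km app for CSF1R Z'LYTE; 10 for CAMK1 Adapta. Readout = % per kinase.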

CN(C(=O)CN1CCOCC1)c1ccc2sc3c(-c4cccc5c(=O)cc(N6CC7CCC(C6)O7)oc45)cccc3c2c1 [NU5455]
inhibition at 1 µM: 5.7%
